Data set [1] concerns dopamine transporter protein over the norepinephrine transporter protein. To be noted: ratio of Ki values; cited from earlier work.

The source of these data is patent US7084152B2, “4-phenyl substituted tetrahydroisoquinolines therapeutic use thereof” (AMR Technology, Inc., priority 2000, dated 2006).

Structures can show the parent of a compound that is named as a salt.

In turn, `Cc1ccc(C2CN(C)Cc3c2ccc2ccoc32)cc1` (single isomer, unassigned) (as salt: maleate) returned a melting point of 190 to 191 °C. Consider `COC(=O)C(c1ccccc1)C1CCCCN1` (stereo not shown) [Methylphenidate, methylphenidate], for which the “DAT/NET Ki ratio” value in data set [1] is 0.1. Turning to `Cc1ccc(C2CN(C)Cc3c2ccc2ccoc32)cc1` (single isomer, unassigned) (as salt: hydrochloride), the melting point lay in the range of 240 to 246 °C.

For the compound `CN1Cc2c(ccc3ccoc23)C(c2ccccc2)C1` (single isomer, unassigned) (as salt: maleate), the melting point is 165 to 168 °C. Still for that read-out and setting: under `CN1Cc2c(ccc3ccoc23)C(c2ccccc2)C1` (single isomer, unassigned) stands 81 to 83 °C.

In turn, `CN1Cc2c(ccc3ccoc23)C(c2cc(F)cc(F)c2)C1` (stereo not shown) (as salt: hydrochloride) returned a melting point of 233 to 236 °C. Same read-out and setting: the same measure for `CN1Cc2c(ccc3ccoc23)C(c2ccc(F)cc2)C1` (stereo not shown) (as salt: hydrochloride): 242 to 257 °C.
